This is an account of results in patent US7442394B2, “Combined effects of nutrients on proliferation of stem cells” (University of South Florida, priority 2005, dated 2008).

The test system of series [1] is human bone marrow cells. The series is described as follows: MTT cell proliferation assay on human bone marrow cells. The conditions noted are these: for proliferative activity on human bone marrow cells in culture (screen): screened individually; for increase in proliferation, percent over control: 20 μM. In kind it is cell-based. In general terms: Formazan colour is commonly taken as a measure of viable cells.

Series [2] deals with Human bone marrow-derived CD34+ cells. The experiment in a line: MTT cell proliferation assay on CD34+ cells. In kind it is cell-based. To be noted: highest doses (BB 500 ng/mL, D3 5 μM, CH 20 μM, Ca 20 μM, GT 500 ng/mL), 72 hours. On the procedure: Human CD133+ cells were cultured for 23 days in the presence or absence of green tea (50 μg/ml).
(§1) Cell cultures and MTT Assay. For cell proliferation analysis, human bone marrow cells, human CD34+cells or CD133 cells (BioWhittaker, Inc.) were cultured in 96 well plates (5×10^4/well) containing 100 μL of complete medium (RPMI 1640 medium supplemented with 5% fetal calf serum). These cells were treated for 72 hours with various extracts at a wide range of doses (8 ng/mL to 500 ng/mL) or molecular compounds (0.3125 μM to 20 μM). Five hours before the end of the treatment, 20 μL of MTT solution (MTT kit, Sigma) was added to each well. These plates were then incubated in a CO2 incubator at 37° C. for 5 hours and the cultured media removed with needle and syringe. 200 μL of DMSO was added to each well with pipetting up and down to dissolve crystals. These plates were put back into the 37° C. incubator for 5 minutes, transferred to plate reader and measured absorbance at 550 nm. Data were represented as relative percentage mean proliferation, defined as O.D. reading number of each treated cells normalized to control cells (in the absence of treatment).

The conditions of series [3]: daily administration of 4000 IUs (100 mcg); cited from earlier work.
The conditions of series [4]: cited from earlier work.
The subject of series [5] is CD133+ (progenitor cells) collected from peripheral blood. The experiment in a line: MTT cell proliferation assay on CD133+ cells. To be noted: same conditions as CD34+ cells. Type of series: cell-based, human. The method, then:
as §1
Promotion of CD133+ Cell Proliferation and Synergistic Properties of Extracts and Compounds. Some of the compounds and combinations with the greatest activity on proliferation of the bone marrow derived CD34+ cells were then used to treat CD133+ (progenitor cells) collected from peripheral blood and cultured under the same conditions as above.

Series [6] in a line: Vitamin D3 blood concentration in humans. Type of series: in vivo. The conditions noted are these: dose of 50 mcg. On the procedure:
In one example, Vitamin D3 is used as 2000 IU's, which is equivalent to 50 μg. In humans, daily administration of 4000 IUs (100 mcg) results in a blood concentration of 100 nmol/L. There is no official RDA for vitamin D3 [R. Vieth, D. Fraser, Vitamin D insufficiency: no recommended dietary allowance exists for this nutrient, CMAJ 166 (2002) 1541-1542](4). According to a conservative report of the Food and Nutrition Board [R. Vieth (2004) Why the optimal requirement for Vitamin D3 is probably much higher than what is officially recommended for adults. Journal of Steroid Biochemistry & Molecular Biology 89-90 (2004) 575-579], the safety limit (no adverse effect level, NOAEL) of vitamin D3 intake in humans is 60 mcg (or 2400 IU) per day [Standing Committee on the Scientific Evaluation of Dietary Reference Intakes. Dietary Reference Intakes: Calcium, Phosphorus, Magnesium, Vitamin D, and Fluoride. National Academy Press, 1997]. After applying a margin of safety, the recommended upper limit is 50 mcg (2000 IUs) per day for intake by the general public [I. Munro, Derivation of tolerable upper intake levels of nutrients, Am. J. Clin. Nutr. 74 (2001) 865-867]. Clinical trials show no benefit from oral doses 20 mcg (800 IUs) or less [R. Vieth (2004) Why the optimal requirement for Vitamin D3 is probably much higher than what is officially recommended for adults. […]

The conditions of series [7]: cited from earlier work. The source holds these as a separate data set.
Series [8] can be described thus: Human pK study of carnosine after beef consumption (Park et al. 2005). Type of series: in vivo, humans. The method, then: In one example, carnosine is added to a supplement in a dose of 100 mg. A recent pK study in humans [Park Y J, Volpe S L, Decker, E A (2005) Quantitation of Carnosine in Humans Plasma after Dietary Consumption of Beef. J. Agric. […] With a Mw of 266 and assuming 5 liters of blood in a human, 250 mg carnosine produces a blood conc of […]. Assuming linear pK, 100 mg should produce a human blood concentration of […]. Doses tested ranged from 1-20 μM, effect was still increasing at 20 μM. Thus, a dose as high as 620 may be helpful and still be within normal ranges for human consumption. A preferred effective range is about 10 mg to 100 mg of carnosine based on extrapolation from results obtained.

The test system of series [9] is colony forming units (CFU-C's). The experiment in a line: HALO colony forming assay of bone marrow, spleen and mononuclear cells. In kind it is in vivo, mice. The conditions noted are these: 6 days of treatment. On the procedure:
(§2) On day 7 cells were isolated and prepared for flow cytometry. The percentage of CD117/SCA-1 positive cells was analyzed. This represents a hematopoietic stem cells. […] On day 7 cells were isolated and plated in the colony forming assay (see specific methods) for 5 days. ATP was detected by luciferase assay and luminescence was converted to ATP units with use of a standard curve. […] Although a statistically small sample, the effects show a cytokine like effect to reduce progenitors in the bone marrow.
(§3) In vivo studies. […] To date we have treated 3 mice with (Blueberry Extract: 3 mg/kg/day; Carnosine: 10 mg/kg/day; Vitamin D3:1 mg/kg/day; green tea extract: 3 mg/kg/day) or water by gavage, in addition 3 mice have been treated with G-CSF […] i.p. Initial studies were done at 6 days of treatment as this is an optimal time for G-CSF to show mobilization of progenitors into the peripheral blood. Bone marrow, spleen and peripheral blood mononuclear cells were examined by flow cytometry with SCA-1 and CD117, the presence of both markers is indicative of multipotent hematopoietic stem cells. […] The three fractions were also assessed in the HALO™ colony forming assay. […] This effect is consistent with the literature and thus increases our confidence in this version of the CFU-C assay.

Series [10] relates to CD117/SCA-1 positive cells (hematopoietic stem cells). The series is described as follows: Flow cytometry of CD117/SCA-1 positive cells after 6 days of treatment. In kind it is in vivo, mice. The conditions noted are these: day 7. On the procedure: as §2, §3
In general terms: Flow cytometry measures light scatter and fluorescence of single cells or particles in a stream.

In the case of `O=C(O[C@@H]1Cc2c(O)cc(O)cc2O[C@@H]1c1cc(O)c(O)c(O)c1)c1cc(O)c(O)c(O)c1` [EGCG], the “proliferative activity on human bone marrow cells in culture (screen)” value (“proliferative activity” below) in series [1] is “did not show high activity”.

Catechin: in series [2], the “increase in proliferation, percent over control (FIG. 2B)” value is 24.8±5.0%. In series [1] (72 hours), the “increase in proliferation, percent over control” value was 34.8±5.2%. In addition, the “proliferative activity” value in [1] is listed as “increase cell proliferation”.

For `C=C1CC[C@H](O)C/C1=C/C=C1\CCC[C@]2(C)[C@@H]([C@H](C)CCCC(C)(C)O)CC[C@@H]12` [25-Hydroxycholecalciferol], the blood concentration in series [3] is 0.1 µM. Also, in series [2], the “increase in proliferation, percent over control (FIG. 2B)” value is recorded as 6.9±2.6%. The “proliferation, percent over control” value in series [1] (5 μM, 72 hours) was found to be 14.8±3.3%. In addition, in series [1], the “proliferative activity” value is reported as “increase cell proliferation”. Also, in series [4] (after applying a margin of safety), the “recommended upper limit for intake by the general public” value is 50 mcg per day. The “safety in clinical trials” value in [4] (human oral doses of 1000 IUs to 4000 IUs (100 mcg/day)) is “completely safe”. Also, the “safety limit (no adverse effect level, NOAEL) of intake” value in [4] (humans) was 60 mcg per day. Moreover, the “increase in proliferation, percent over control (FIG. 2C)” value in series [5] came to 7.6±1.39%. This molecule had a plasma concentration in [6] of 0.05 µM.

As to `NCCC(=O)N[C@@H](Cc1cnc[nH]1)C(=O)O` [Carnosine], the “increase in proliferation, percent over control (FIG. 2B)” value in [2] turned out to be 11.05±2.1%. Further, the “increase in proliferation, percent over control” value in [1] (72 hours) is 26.6±6.0%. Besides, the “proliferative activity” value in series [1] is reported as “increase cell proliferation”. Also, the plasma conc. in series [7] (250 mg carnosine (two beef patties) ingested) was 33000 ng/mL. In addition, in [7] (250 mg carnosine ingested), the “time of plasma peak” value was 3 h and the “time of return to baseline” value is 5 h. In series [8] (100 mg, assuming linear pK), the human blood concentration was found to be 248 µM. Moreover, in series [8] (human, whole blood, oral, 250 mg carnosine, Mw of 266, assuming 5 liters of blood, read-out: blood conc), the concentration at 3 h was found to be 620 µM. In addition, in [5], the “increase in proliferation, percent over control (FIG. 2C)” value amounted to 16.9±3.3%.

As to “hGM-CSF: positive control, human granulocyte colony-stimulating factor”, in series [2], the “increase in proliferation, percent over control (FIG. 2B)” value was 48.3±7.4%. The “increase in proliferation, percent over control (FIG. 2A)” value in series [1] (combination experiment, BB 500 ng/mL, D3 5 μM, CH 20 μM, Ca 20 μM, GT 500 ng/mL, 72 hours) worked out at 48.3±7.4%. Besides, the “proliferation, percent over control” value in [1] (highest dose of 100 ng/ml, 72 hours) worked out at 44.5±8.1%. The “increase in proliferation, percent over control (FIG. 2C)” value in [5] was 21.11±2.9%.

B1: G-CSF: granulocyte-colony-stimulating factor, potent cytokine given i.p. to mice (protein, UniProt P09919 31-207, looked up)
Granulocyte …: TPLGPASSLPQSFLLKCLEQVRKIQGDGAALQEKLVSECATYKLCHPEELVLLGHSLGIPWAPLSSCPSQALQLAGCLSQLHSGLFLYQGLLQALEGISPELGPTLDTLQLDVADFATTIWQQMEELGMAPALQPTQGAMPAFASAFQRRAGGVLVASHLQSFLEVSYRVLRHLAQP
B1: the “colony forming units (CFU-C's)” value in series [9] (bone marrow fraction) was “decrease”; in series [9] (bone marrow fraction, listed as GCSF), “reduce”; in series [9] (spleen and MNC fractions), “increase”. The CD117/SCA-1 positive cells result was “decrease” in series [10] (BM population); “small increase” in series [10] (all 3 cell fractions (BM, spleen, MNC)); “trend for an increase” in series [10] (spleen and MNC populations).
